According to patent publication US20230085307A1, “PYRIDAZINONE COMPOUND AND HERBICIDE” (NISSAN CHEMICAL CORPORATION, priority 2019, published 2023):

What was measured:
Italian ryegrass [1] = experiment: Test Example 5: herbicidal effect by foliage application, plastic box (Table 20, symbol K); format: in vivo, Italian ryegrass (Lolium multiflorum); settings: foliage application, 320 g/ha, evaluated three weeks after application
Summary of the method: (§1)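 Foliar spray test: emulsion formulation diluted in water to a set application rate, sprayed onto 14-day-old plants raised in diluvial soil at 25° C to 30° C under glass. Both herbicidal effect and crop effect rated visually three weeks later.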

barnyard grass [2] = experiment: Test Example 3: herbicidal effect by foliage application, Wagner pot (Table 18, symbol H); format: in vivo, barnyard grass (Echinochloa crus-galli); settings: amount of applied herbicide 320 g/ha
Summary of the method: (§2)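 Plants were sown in alluvial soil held under 0.1–0.5 cm standing water and grown 14 days in a greenhouse at 25–30 °C. An emulsifiable formulation, water-diluted to the set dose, was then sprayed onto the foliage, and effects were scored three weeks later using previously defined criteria.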

windgrass [3] = experiment: Test Example 5: herbicidal effect by foliage application, plastic box (Table 20, symbol L); format: in vivo, windgrass (Apera spica-venti); settings: foliage application, 320 g/ha, evaluated three weeks after application
Summary of the method: as §1

barnyard grass [4] = experiment: Test Example 5: herbicidal effect by foliage application, plastic box (Table 20, symbol H); format: in vivo, barnyard grass (Echinochloa crus-galli); settings: foliage application, 320 g/ha, evaluated three weeks after application
Summary of the method: as §1

green foxtail [5] = experiment: Test Example 4: herbicidal effect by soil treatment (Table 19, symbol G); format: in vivo, green foxtail (Setaria viridis); settings: amount of applied herbicide 320 g/ha
Summary of the method: (§3)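 Herbicidal effect was rated 3 weeks after treatment, using the scoring criteria of an earlier test. The compound, formulated as an emulsion and diluted in water to a set herbicide amount, had been sprayed uniformly on soil over freshly sown seeds. Growth took place in a greenhouse at 25° C. to 30° C.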

velvetleaf [6] = experiment: Test Example 5: herbicidal effect by foliage application, plastic box (Table 20, symbol M); format: in vivo, velvetleaf (Abutilon theophrasti); settings: foliage application, 320 g/ha, evaluated three weeks after application
Summary of the method: as §1

chickweed [7] = experiment: Test Example 5: herbicidal effect by foliage application, plastic box (Table 20, symbol P); format: in vivo, common chickweed (Stellaria media); settings: foliage application, 320 g/ha, evaluated three weeks after application
Summary of the method: as §1

Italian ryegrass [8] = experiment: Test Example 4: herbicidal effect by soil treatment (Table 19, symbol K); format: in vivo, Italian ryegrass (Lolium multiflorum); settings: amount of applied herbicide 320 g/ha
Summary of the method: as §3

chickweed [9] = experiment: Test Example 4: herbicidal effect by soil treatment (Table 19, symbol P); format: in vivo, common chickweed (Stellaria media); settings: amount of applied herbicide 320 g/ha
Summary of the method: as §3

lambsquarters [10] = experiment: Test Example 4: herbicidal effect by soil treatment (Table 19, symbol O); format: in vivo, lambsquarters (Chenopodium album); settings: amount of applied herbicide 320 g/ha
Summary of the method: as §3

lambsquarters [11] = experiment: Test Example 5: herbicidal effect by foliage application, plastic box (Table 20, symbol O); format: in vivo, lambsquarters (Chenopodium album); settings: foliage application, 320 g/ha, evaluated three weeks after application
Summary of the method: as §1

wild oat [12] = experiment: Test Example 5: herbicidal effect by foliage application, plastic box (Table 20, symbol I); format: in vivo, wild oat (Avena fatua); settings: foliage application, 320 g/ha, evaluated three weeks after application
Summary of the method: as §1

green foxtail [13] = experiment: Test Example 5: herbicidal effect by foliage application, plastic box (Table 20, symbol G); format: in vivo, green foxtail (Setaria viridis); settings: foliage application, 320 g/ha, evaluated three weeks after application
Summary of the method: as §1

persian speedwell [14] = experiment: Test Example 4: herbicidal effect by soil treatment (Table 19, symbol R); format: in vivo, Persian speedwell (Veronica persica); settings: amount of applied herbicide 320 g/ha
Summary of the method: as §3

persian speedwell [15] = experiment: Test Example 5: herbicidal effect by foliage application, plastic box (Table 20, symbol R); format: in vivo, Persian speedwell (Veronica persica); settings: foliage application, 320 g/ha, evaluated three weeks after application
Summary of the method: as §1

velvetleaf [16] = experiment: Test Example 4: herbicidal effect by soil treatment (Table 19, symbol M); format: in vivo, velvetleaf (Abutilon theophrasti); settings: amount of applied herbicide 320 g/ha
Summary of the method: as §3

wild oat [17] = experiment: Test Example 4: herbicidal effect by soil treatment (Table 19, symbol I); format: in vivo, wild oat (Avena fatua); settings: amount of applied herbicide 320 g/ha
Summary of the method: as §3

blackgrass = experiment: Test Example 5: herbicidal effect by foliage application, plastic box (Table 20, symbol J); format: in vivo, blackgrass (Alopecurus myosuroides); settings: foliage application, 320 g/ha, evaluated three weeks after application
Summary of the method: as §1

barnyard grass [18] = experiment: Test Example 4: herbicidal effect by soil treatment (Table 19, symbol H); format: in vivo, barnyard grass (Echinochloa crus-galli); settings: amount of applied herbicide 320 g/ha
Summary of the method: as §3

redroot pigweed [19] = experiment: Test Example 5: herbicidal effect by foliage application, plastic box (Table 20, symbol N); format: in vivo, redroot pigweed (Amaranthus retroflexus); settings: foliage application, 320 g/ha, evaluated three weeks after application
Summary of the method: as §1

southern crabgrass [20] = experiment: Test Example 4: herbicidal effect by soil treatment (Table 19, symbol F); format: in vivo, southern crabgrass (Digitaria ciliaris); settings: amount of applied herbicide 320 g/ha
Summary of the method: as §3

Chinese sprangletop = experiment: Test Example 3: herbicidal effect by foliage application, Wagner pot (Table 18, symbol D); format: in vivo, chinese sprangletop (Leptochloa chinensis); settings: amount of applied herbicide 320 g/ha
Summary of the method: as §2

rice flat sedge = experiment: Test Example 3: herbicidal effect by foliage application, Wagner pot (Table 18, symbol E); format: in vivo, rice flat sedge (Cyperus iria); settings: amount of applied herbicide 320 g/ha
Summary of the method: as §2

redroot pigweed [21] = experiment: Test Example 4: herbicidal effect by soil treatment (Table 19, symbol N); format: in vivo, redroot pigweed (Amaranthus retroflexus); settings: amount of applied herbicide 320 g/ha
Summary of the method: as §3

southern crabgrass [22] = experiment: Test Example 5: herbicidal effect by foliage application, plastic box (Table 20, symbol F); format: in vivo, southern crabgrass (Digitaria ciliaris); settings: foliage application, 320 g/ha, evaluated three weeks after application
Summary of the method: as §1

windgrass [23] = experiment: Test Example 4: herbicidal effect by soil treatment (Table 19, symbol L); format: in vivo, windgrass (Apera spica-venti); settings: amount of applied herbicide 320 g/ha
Summary of the method: as §3

SMILES: COCCOC(=O)Oc1c(C)nn(C)c(=O)c1-c1c(-c2ccc(F)cc2OC)sc2ccc(Cl)cc12 [2-114]
- herbicidal effect on K: Italian ryegrass (Italian ryegrass [1]): 0 (Herbicidal rate of 5% or less (almost no effect))
- herbicidal effect on H: barnyard grass (barnyard grass [2]): 4 (Herbicidal rate of 70% or more and less than 90%)
- herbicidal effect on L: windgrass (windgrass [3]): 4 (Herbicidal rate of 70% or more and less than 90%)
- herbicidal effect on H: barnyard grass (barnyard grass [4]): 3 (Herbicidal rate of 40% or more and less than 70%)
- G: green foxtail, herbicidal effect rating (green foxtail [5]): 0 (Herbicidal rate of 5% or less (almost no effect))
- herbicidal effect on M: velvetleaf (velvetleaf [6]): 3 (Herbicidal rate of 40% or more and less than 70%)
- herbicidal effect on P: chickweed (chickweed [7]): 5 (Herbicidal rate of 90% or more (almost completely withered))
- K: Italian ryegrass, herbicidal effect rating (Italian ryegrass [8]): 0 (Herbicidal rate of 5% or less (almost no effect))
- P: chickweed, herbicidal effect rating (chickweed [9]): 4 (Herbicidal rate of 70% or more and less than 90%)
- O: lambsquarters, herbicidal effect rating (lambsquarters [10]): 3 (Herbicidal rate of 40% or more and less than 70%)
- herbicidal effect on O: lambsquarters (lambsquarters [11]): 3 (Herbicidal rate of 40% or more and less than 70%)
- herbicidal effect on I: wild oat (wild oat [12]): 0 (Herbicidal rate of 5% or less (almost no effect))
- herbicidal effect on G: green foxtail (green foxtail [13]): 1 (Herbicidal rate of 5% or more and less than 20%)
- R: persian speedwell, herbicidal effect rating (persian speedwell [14]): 0 (Herbicidal rate of 5% or less (almost no effect))
- herbicidal effect on R: persian speedwell (persian speedwell [15]): 3 (Herbicidal rate of 40% or more and less than 70%)
- M: velvetleaf, herbicidal effect rating (velvetleaf [16]): 0 (Herbicidal rate of 5% or less (almost no effect))
- I: wild oat, herbicidal effect rating (wild oat [17]): 0 (Herbicidal rate of 5% or less (almost no effect))
- herbicidal effect on J: blackgrass (blackgrass): 4 (Herbicidal rate of 70% or more and less than 90%)
- H: barnyard grass, herbicidal effect rating (barnyard grass [18]): 0 (Herbicidal rate of 5% or less (almost no effect))
- herbicidal effect on N: redroot pigweed (redroot pigweed [19]): 1 (Herbicidal rate of 5% or more and less than 20%)
- F: southern crabgrass, herbicidal effect rating (southern crabgrass [20]): 0 (Herbicidal rate of 5% or less (almost no effect))
- herbicidal effect on D: Chinese sprangletop (Chinese sprangletop): 3 (Herbicidal rate of 40% or more and less than 70%)
- herbicidal effect on E: rice flat sedge (rice flat sedge): 5 (Herbicidal rate of 90% or more (almost completely withered))
- N: redroot pigweed, herbicidal effect rating (redroot pigweed [21]): 5 (Herbicidal rate of 90% or more (almost completely withered))
- herbicidal effect on F: southern crabgrass (southern crabgrass [22]): 0 (Herbicidal rate of 5% or less (almost no effect))
- L: windgrass, herbicidal effect rating (windgrass [23]): 0 (Herbicidal rate of 5% or less (almost no effect))
